This passage reports MIC results from patent publication US8604029B2, “2-[(2-substituted)-indolizin-3-yl]-2-oxo-acetamide derivatives as antifungal agents” (F2G Ltd British Body Corporate, priority 2006, dated 2013).

≈ marks a conversion by molar mass, not a printed value. Read-outs that look alike come from different tables or passages of the source. Bounds are passed on as bounds.

As a reminder, the MIC is the least concentration at which growth counts as inhibited.

This experiment has as its system Aspergillus fumigatus. Nature of the experiment: MIC measurement, YAG medium. The note with it: Aspergillus fumigatus, read-out: MIC A. fumigatus. Format: cell-based. How it is done:
Between 1 and 5 mgs of compound were accurately weighed out into a sterile Eppendorf tube. The compound was dissolved in DMSO to give a solution containing […]. Tubes were stored at −20° C. until required.
On the day of testing thawed solutions were vortex mixed to ensure homogeneity. 30 μL of solution was removed and added to 570 μL of sterile water in a separate sterile Eppendorf. The thoroughly mixed solution was used to prepare a series of doubling dilutions in water, in a deep well plate. Thirteen replicate plates were prepared using a Minitrak by aspirating 20 μL from each well into eleven clear polystyrene 96 well plates.
Spores of Aspergillus spp. (Aspergillus fumigatus [two strains], Aspergillus terreus [two strains], Aspergillus niger and Aspergillus flavus) were harvested from cultures grown on Sabarauds agar for 5 days, and resuspended in PBS/Tween 80 to approx 1×10^7 cfu/mL. Other filamentous fungi (Absidia corymbifera, Fusarium solani, Rhizomucor, Scedosporium spp., Trichophyton spp.), were grown on Sabarauds agar for 2-10 days and spores/hyphae resuspended in PBS/Tween to give approx 1×10^7 cfu/mL. Candida species (Candida albicans, Candida glabrata, Candida krusei, Candida parapsilosis and Candida tropicalis) were grown on Sabarauds agar, cells were harvested from the agar using a sterile loop and resuspended in PBS/Tween 80 to approx 1×10^6 cfu/mL. Each organism suspension was diluted in RPMI medium, containing 2% glucose and 0.135 M MOPS buffer (pH 7.0) to 0.5-2×10^4 cfu/mL for Aspergillus spp. and other filamentous fungi and 0.5-2×10^3 cfu/mL for yeast. 80 μL of an organism suspension was added to each well of the plate containing drug dilutions.
This produced MIC plates with a drug range 50-0.05 mg/L and organism inocula of 1-2×10^4 cfu/mL for Aspergillus spp. and other filamentous fungi and 1-2×10^3 cfu/mL for yeasts. All plates were incubated for 24-48 hrs at 35° C. Growth was assessed by monitoring the optical density at 485 nm for each well. The MIC of a compound is the lowest drug concentration that inhibits growth of an organism by >80% compared with a drug free control. MICs are recorded as mg/L. Other growth media can be used for susceptibility testing, and the activity of the described compounds can also be assessed in a medium comprising 1% glucose, 1% ammonium chloride and 0.5% yeast extract (YAG medium). To perform MIC tests in this medium, dilutions of compounds are prepared in microtitre plates as described above. Fungal strains to be tested are grown and harvested in an identical manner to that described above, each organism suspension is then diluted in YAG medium to 0.5-2×10^4 cfu/mL for Aspergillus spp. and other filamentous fungi and 0.5-2×10^3 cfu/mL for yeast. 80 μL of an organism suspension was added to each well of the plate containing drug dilutions. This produced MIC plates with a drug range 50-0.05 mg/L and organism inocula of 1-2×10^4 cfu/mL for Aspergillus spp. and other filamentous fungi and 1-2×10^3 cfu/mL for yeasts. All plates were incubated for 24 hrs at 35° C. Growth was assessed by monitoring the optical density at 485 nm for each well. The MIC of a compound is the lowest drug concentration that inhibits growth of an organism by >70% compared with a drug free control. MICs are recorded as mg/L. In cases where the MIC of an organism is […] mg/L the MIC is repeated using a concentration range of 0.5-0.0005 mg/L. MIC tests in YAG medium have more clear-cut endpoints and have slightly lower MICs than those performed in RPMI medium.
The following organisms were tested: Absidia corymbifera, Aspergillus flavus, Aspergillus fumigatus AF293 and AF210, Aspergillus niger, Aspergillus terreus AT4 and AT49, Candida albicans, Candida glabrata, Candida krusei, Candida parapsilosis, Candida tropicalis, Fusarium solani, Rhizomucor sp., Scedosporium apiospermum, Scedosporium prolificans, Trichophyton mentagrophytes, and Trichophyton rubrum.

Where [1] appears, read: YAG medium, MIC banded into grades, strain AF293.

Take `Cc1cc(C)nc(N(C)CCN(C)c2ccc(NC(=O)C(=O)c3c(-c4ccccc4)cc4ccccn34)cc2)c1` [Example 55, N-[4-({2-[(4,6-Dimethyl-pyridin-2-yl)-methyl-amino]-ethyl}-methyl-amino)-phenyl]-2-oxo-2-(2-phenyl-indolizin-3-yl)-acetamide]: under setting [1], the minimum inhibitory concentration (MIC) was under 1 µg/mL.

Consider `COCCOCCOc1cc(C)nc(N2CCN(c3ccc(NC(=O)C(=O)c4c(-c5ccccc5)cc5ccccn45)cc3)CC2)c1` [Example 76, N-[4-(4-{4-[2-(2-methoxy-ethoxy)-ethoxyl]-6-methyl-pyridin-2-yl}-piperazin-1-yl)-phenyl]-2-oxo-2-(2-phenyl-indolizin-3-yl)-acetamide], for which, under setting [1], the MIC is under 1 µg/mL.

As to `CCN(CC)C(=O)Oc1cc(-c2ccc(NC(=O)C(=O)c3c(-c4ccccc4)cc4ccccn34)cc2)on1` [Example 27, Diethyl-carbamic acid-5-{4-[2-oxo-2-(2-phenyl-indolizin-3-yl)-aeetylamino]-phenyl}-isoxazol-3-yl ester], the minimum inhibitory concentration (MIC) is under 1 µg/mL.

As for `O=C(Nc1ccc(N2CCN(c3cccnc3)CC2)cc1)C(=O)c1c(-c2ccccc2)cc2ccccn12` [Example 59, 2-Oxo-2-(2-phenyl-indolizin-3-yl)-N-[4-(4-pyridin-3-yl-piperazin-1-yl)-phenyl]-acetamide], the minimal inhibitory concentration (MIC) under setting [1] was under 1 µg/mL.

With `Cc1cc(C)nc(N2CCN(c3ccc(NC(=O)C(=O)c4c(C5CCCCC5)cc5ccccn45)cc3)CC2)c1` [Example 60, 2-(2-Cyclohexyl-indolizin-3-yl)-N-{4-[4-(4,6-dimethyl-pyridin-2-yl)-piperazin-1-yl]-phenyl}-2-oxo-acetamide], the MIC under setting [1] was under 1 µg/mL.

Take `Cc1cc(C)nc(N(C)CCNc2ccc(NC(=O)C(=O)c3c(-c4ccccc4)cc4ccccn34)cc2)c1` [Example 78, N-(4-{2-[(4,6-Dimethyl-pyridin-2-yl)-methyl-amino]-ethylamino}-phenyl)-2-oxo-2-(2-phenyl-indolizin-3-yl)-acetamide]: the minimum inhibitory concentration (MIC) under setting [1] is under 1 µg/mL.

Take `CC(C)c1nccn1CCOC(=O)C(C)(C)c1cccc(NC(=O)C(=O)c2c(-c3ccccc3)cc3ccccn23)c1` [Example 22, 2-Methyl-2-{3-[2-oxo-2-(2-phenyl-indolizin-3-yl)-acetylamino]-phenyl}-propionic acid 2-(2-isopropyl-imidazol-1-yl)-ethyl ester]: the minimum inhibitory concentration (MIC) under setting [1] was over 10 µg/mL.

On to `Cc1cc(C)nc(N2CCCN(c3ccc(NC(=O)C(=O)c4c(-c5ccccc5)cc5ccccn45)cc3)CC2)c1` [Example 54, N-{4-[4-(4,6-Dimethyl-pyridin-2-yl)-[1,4]diazepan-1-yl]-phenyl}-2-oxo-2-(2-phenyl-indolizin-3-yl)-acetamide], for which the MIC under setting [1] was under 1 µg/mL.

With `CC(C)c1nc(C(C)(C)c2ccc(NC(=O)C(=O)c3c(-c4ccccc4)cc4ccccn34)cc2)cn1C` [Example 16, N-{4-[1-(2-isopropyl-1-methyl-1H-imidazol-4-yl)-1-methyl-ethyl]-phenyl}-2-oxo-2-(2-phenyl-indolizin-3-yl)-acetamide], under setting [1], the MIC lay in the range of 1 to 10 µg/mL (≈ 1.98 to 19.8 µM).

As for `Cc1cc(C)nc(N2CCN(c3ccc(NC(=O)C(=O)c4c(C5CCOCC5)cc5ccccn45)cc3)CC2)c1` [Example 66, N-{4-[4-(4,6-Dimethyl-pyridin-2-yl)-piperazin-1-yl]-phenyl}-2-oxo-2-[2-(tetrahydro-pyran-4-yl)-indolizin-3-yl]-acetamide], the MIC under setting [1] is under 1 µg/mL.

Regarding `O=C(Nc1ccc(C(=O)OC2CCOCC2)c(O)c1)C(=O)c1c(-c2ccccc2)cc2ccccn12` [Example 11, 2-hydroxy-4-[2-oxo-2-(2-phenyl-indolizin-3-yl)-acetylamino]-benzoic acid tetrahydro-pyran-4-yl ester], the MIC under setting [1] was under 1 µg/mL.

Take `CC(C)c1ncc(C(C)(C)c2ccc(NC(=O)C(=O)c3c(-c4ccccc4)cc4ccccn34)cc2)n1C` [Example 17, N-{4-[1-(2-Isopropyl--3-methyl-3H-imidazol-4-yl)-1-methyl-ethyl]-phenyl}-2-oxo-2-(2-phenyl-indolizin-3-yl)-acetamide]: the minimal inhibitory concentration (MIC) under setting [1] was over 10 µg/mL.

For `CN1/C(=N/c2ccc(NC(=O)C(=O)c3c(-c4ccccc4)cc4ccccn34)cc2)OCC1(C)C` [Example 8, 2-oxo-2-(2-phenyl-indolizin-3-yl)-N-{4-[3,4,4-trimethyl-oxazolidin-(2Z)-ylideneamino]-phenyl}-acetamide], the minimal inhibitory concentration (MIC) under setting [1] was over 10 µg/mL.

On to `Cc1cc(C)nc(N2CCN(c3ccc(NC(=O)C(=O)c4c(C5CC5)cc5ccccn45)cc3)CC2)c1` [Example 58, 2-(2-Cyclopropyl-indolizin-3-yl)-N-{4-[4-(4,6-dimethyl-pyridin-2-yl)-piperazin-1-yl]-phenyl}-2-oxo-acetamide], for which the MIC under setting [1] is under 1 µg/mL.

On to `CS(=O)(=O)NC(=O)c1ccc(NC(=O)C(=O)c2c(-c3ccccc3)cc3ccccn23)cc1` [Example 5, N-(4-methanesulfonylaminocarbonyl-phenyl)-2-oxo-2-(2-phenyl-indolizin-3-yl)-acetamide], for which the minimum inhibitory concentration (MIC) under setting [1] is over 10 µg/mL.

As to `Cc1cc(C)nc(N2CCN(c3ccc(NC(=O)C(=O)c4c(-c5ccccc5)cc5ccccn45)cc3)CC2)c1` [Example 21, N-{4-[4-(4,6-Dimethyl-pyridin-2-yl)-piperazin-1-yl]-phenyl}-2-oxo-2-(2-phenyl-indolizin-3-yl)-acetamide], under setting [1], the MIC was under 1 µg/mL.

For `Cc1cc(C)nc(N(C)CCOc2ccc(NC(=O)C(=O)c3c(-c4ccccc4)cc4ccccn34)cc2)c1` [Example 64, N-(4-{2-[(4,6-Dimethyl-pyridin-2-yl)-methyl-amino]-ethoxy}-phenyl)-2-oxo-2-(2-phenyl-indolizin-3-yl)-acetamide], under setting [1], the MIC is under 1 µg/mL.

For `COc1ccc(NC(=O)C(=O)c2c(C)c(-c3ccccc3)c3ccccn23)cc1` [Example 6, N-(4-methoxy-phenyl)-2-(2-methyl-1-phenyl-indolizin-3-yl)-2-oxo-acetamide], the minimum inhibitory concentration (MIC) under setting [1] was over 10 µg/mL.

As to `Cc1cc(C)nc(N(C)CCCN(C)c2ccc(NC(=O)C(=O)c3c(-c4ccccc4)cc4ccccn34)cc2)c1` [Example 67, N-[4-({3-[(4,6-dimethyl-pyridin-2-yl)-methyl-amino]-propyl}-methyl-amino)-phenyl]-2-oxo-2-(2-phenyl-indolizin-3-yl)-acetamide], the minimal inhibitory concentration (MIC) under setting [1] is under 1 µg/mL.

Turning to `CC(C)(C)CN1CCN(c2ccc(NC(=O)C(=O)c3c(-c4ccccc4)cc4ccccn34)nc2)CC1` [Example 50, N-{5-[4-(2,2-Dimethyl-propyl)-piperazin-1-yl]-pyridin-2-yl}-2-oxo-2-(2-phenyl-indolizin-3-yl)-acetamide], under setting [1], the MIC is under 1 µg/mL.

Turning to `Cc1cc(C)nc(N2CCN(c3ccc(NC(=O)C(=O)c4c(-c5ccccc5)cc5ccccn45)cc3)CC2)n1` [Example 44, N-{4-[4-(4,6-Dimethyl-pyrimidin-2-yl)-piperazin-1-yl]-phenyl}-2-oxo-2-(2-phenyl-indolizin-3-yl)-acetamide], the MIC under setting [1] was under 1 µg/mL.
